The values below are quoted from earlier work in US5032597A, “Method of using phenylquinolinecarboxylic acids and derivatives for lymthoid leukemia treatment in a mammal” (priority 1987, dated 1991).

In one data set the test system is NF mouse sarcoma. To be noted: in vitro; cited from earlier work.
For a further data set, the system named is liver tissue. To be noted: cited from earlier work.

In the case of `O=C(O)c1cc(-c2ccccc2)nc2ccccc12` [cinchophen, 2-phenyl-4-quinoline carboxylic acid], in the data set with NF mouse sarcoma, the tumoricidal effect result was “no tumoricidal effect”. Also, the “degeneration of liver tissue” value in the data set on liver tissue is “can produce a degeneration of liver tissue of a possible precancerous nature”.
